Tests used:
Capan-2 cells = assay: Capan-2 cell anti-proliferative activity test; format: cell-based; conditions: Homo sapiens, Capan-2, 120 h; 5 days, CellTiter-Glo
Procedure: Capan-2 cells were provided by Wuhan Heyan Biomedical Technology Co., Ltd., and CellTiter-Glo was purchased from Promega.
Capan-2 cells were seeded in a white 96-well plate, with 80 μL of cell suspension per well, each containing 5,000 Capan-2 cells. The cell plate was placed in a carbon dioxide incubator for overnight culture.
The test compounds were 3-fold diluted with a multi-channel pipette to the 9th concentration, i.e., diluted from 200 μM to 30 nM, and duplicate experiment was set. 78 μL of culture medium was added to an intermediate plate, and then 2 μL of gradient diluted compound per well was transferred to the intermediate plate according to the corresponding position. After mixing well, the compound was transferred to the cell plate at 20 μL per well. The cell plate was placed in a carbon dioxide incubator and cultured for 5 days. Another cell plate was prepared, and the signal value was read on the day of drug administration to serve as the maximum value (Max value in the equation below) for data analysis. 25 μL of cell viability chemiluminescence detection reagent was added to each well of this cell plate, and it was incubated at room temperature for 10 minutes to stabilize the luminescent signal. A multimode microplate reader was used for reading.
After the cell plate was cultured for 5 days, 25 μL of Promega CellTiter-Glo reagent was added to each well of the cell plate, and it was incubated at room temperature for 10 minutes to stabilize the luminescent signal. A multimode microplate reader was used for reading.
The IC50 value could be obtained through curve fitting, and the results of the inhibitory activity of the compounds of the present disclosure on the proliferation of Capan-2 cells are shown in Table 11.

[1] = system: WNT pathway STF reporter gene; assay: Super-Top-Flash (STF) reporter gene inhibitory activity test; format: cell-based; conditions: HEK293 STF and L wnt3A cells 1:1, 24 hours, Bright-Glo
Procedure: HEK293 STF and L wnt3A cells were provided by Wuhan Heyan Biomedical Technology Co., Ltd., and Bright Glo was purchased from Promega.
• HEK293 STF and L wnt3A cells were seeded in a white 96-well plate at a ratio of 1:1, with 80 μL of cell suspension per well, each containing 20,000 HEK293 STF cells and 20,000 L wnt3A cells. The cell plate was placed in a carbon dioxide incubator for overnight culture.
The test compounds were 5-fold diluted with a multi-channel pipette to the 8th concentration, i.e., diluted from 400 μM to 5.12 nM, and duplicate experiment was set. 78 μL of culture medium was added to an intermediate plate, and then 2 μL of gradient diluted compound per well was transferred to the intermediate plate according to the corresponding position. After mixing well, the compound was transferred to the cell plate at 20 μL per well. The cell plate was placed in a carbon dioxide incubator and cultured for 24 hours.
100 μL of Promega Bright-Glo reagent was added to each well of the cell plate, and it was incubated at room temperature for 10 minutes to stabilize the luminescent signal. A multimode microplate reader was used for reading.
Using the raw data from the multimode microplate reader, the IC50 value could be obtained through curve fitting. Table 10 provides the data on the inhibitory activity of the compounds of the present disclosure on the Wnt signaling pathway.

[2] = Hygroscopicity of crystal form A (DVS); format: physicochemical
Procedure: • SMS DVS intrinsic dynamic vapor sorption instrument
Note: ΔW % represents the increase in weight due to moisture absorption of the test sample at 25±1° C. and 80±2% RH.

[3] = Solvent pre-stability of crystal form A (suspension stirring, XRPD); format: physicochemical; conditions: for Crystal form after suspension in solvent (XRPD): stirred overnight at 25° C.
Procedure: (To ensure maximum suspension of the sample, the amount of compound and solvent was adjusted during the experiment based on the observed phenomena, and even the container used for the experiment was changed if necessary.) After adding a magneton, the suspension sample was placed on a magnetic heating stirrer (25° C.) for testing. After stirring overnight at 25° C., the suspension sample was filtered, and the solid sample on the filter cake was placed in a vacuum drying oven (45° C.) to dry overnight. The crystal form of the solid was obtained by X-ray powder diffraction (XRPD) detection.

[4] = Solid pre-stability test of crystal form A (high temperature, high humidity, light; XRPD); format: physicochemical
Procedure: The sample placed under high temperature (60° C.) and high humidity (relative humidity 92.5% RH) conditions was sealed with aluminum foil to seal the mouth of the vial, and small holes were made in the aluminum foil to ensure that the sample could fully contact the ambient air, and it was placed in the corresponding constant temperature and humidity box. The light sample (open, not covered with aluminum foil) and the light control sample (the entire sample vial was covered with aluminum foil) were placed in the light box. At each time point, two samples were weighed separately as official test samples. […] The sample vial was wrapped with aluminum foil and small holes were made, and it was also placed in the corresponding constant temperature and humidity box. The sample was taken for testing (XRPD) on days 5 and 10, and the test results were compared with the initial test results on day 0.

Cn1cc(-c2ccc(CNc3ncnn4c(-c5cncc(F)c5)ccc34)cn2)ccc1=O [Compound 1]
IC50 (Capan-2 cells): 6.09 nM | IC50 [1]: 8.41 nM

Cn1cc(-c2cnc(CNc3nccn4c(-c5cncc(F)c5)cnc34)cn2)ccc1=O [Compound 3]
IC50 (Capan-2 cells): 28 nM

Cn1cc(-c2ccc(CNc3nccn4c(-c5cncc(F)c5)cnc34)cn2)ccc1=O [Compound 4]
IC50 (Capan-2 cells): 24.6 nM

Cn1cc(-c2ccc(CNc3nccc4c3ncn4-c3cncc(F)c3)cn2)ccc1=O [Compound 5]
IC50 (Capan-2 cells): 11.7 nM

Cn1cc(-c2ccc(CNc3nccn4c(-c5cncc(F)c5)cnc34)cc2)ccc1=O [Compound 6]
IC50 (Capan-2 cells): 22.2 nM

Cn1cc(-c2ccc(CNc3nccc4c3ncn4-c3ccccc3)cn2)ccc1=O [Compound 7]
IC50 (Capan-2 cells): 5.94 nM

Cn1cc(-c2cnc(CNc3nccn4c(-c5cc(F)cc(F)c5)cnc34)cn2)ccc1=O [crystal form A of compound 2]
Hygroscopicity classification ([2]; 25° C. and 80% RH): no or almost no hygroscopicity | Weight gain due to moisture absorption ([2]; 25° C., 80% RH, compared to initial humidity of 30% (cycle 1 adsorption)): 0.07% | Weight decrease of the sample ([2]; 25° C., humidity continued to rise to 90%): 0.15% | Weight gain due to moisture absorption ([2]; 25° C., humidity continued to rise to 95% (cycle 1 adsorption)): 0.01% | Crystal form before and after the DVS test (XRPD) ([2]; 30-95-0-95% RH/25° C.): the crystal form did not change | Crystal form after suspension in solvent (XRPD) ([3]; 2-Methyltetrahydrofuran): Crystal form A | Crystal form after suspension in solvent (XRPD) ([3]; Acetone): Crystal form A | Crystal form after suspension in solvent (XRPD) ([3]; Acetone:water (2:1)): Crystal form A | Crystal form after suspension in solvent (XRPD) ([3]; Acetonitrile): Crystal form A | Crystal form after suspension in solvent (XRPD) ([3]; Dioxane): Crystal form A | Crystal form after suspension in solvent (XRPD) ([3]; Ethanol): Crystal form A | Crystal form after suspension in solvent (XRPD) ([3]; Ethanol:water (1:1)): Crystal form A | Crystal form after suspension in solvent (XRPD) ([3]; Ethyl acetate): Crystal form A | Crystal form after suspension in solvent (XRPD) ([3]; Isopropanol): Crystal form A | Crystal form after suspension in solvent (XRPD) ([3]; Methanol): Crystal form A | Crystal form after suspension in solvent (XRPD) ([3]; Methyl tert-butyl ether): Crystal form A | Crystal form after suspension in solvent (XRPD) ([3]; Tetrahydrofuran): Crystal form A | Stability in different solvents ([3]; conclusion): good stability | Crystal form after suspension in solvent (XRPD) ([3]; n-Heptane): Crystal form A | Crystal form (XRPD) ([4]; 0 days): Crystal form A | Crystal form (XRPD) ([4]; High humidity (relative humidity 92.5%, open), 5 days): Crystal form A | Crystal form (XRPD) ([4]; High humidity (relative humidity 92.5%, open), 10 days): Crystal form A | Crystal form (XRPD) ([4]; High temperature (60° C., open), 5 days): Crystal form A | Crystal form (XRPD) ([4]; High temperature (60° C., open), 10 days): Crystal form A | Crystal form (XRPD) ([4]; Light (total illumination = 1.2 × 10^6 Lux · hr/near ultraviolet = 200 w · hr/m^2, open), 5 days): Crystal form A | Crystal form (XRPD) ([4]; Light (total illumination = 1.2 × 10^6 Lux · hr/near ultraviolet = 200 w · hr/m^2, open), 10 days): Crystal form A | Stability under high temperature, high humidity, and strong light ([4]; conclusion): good stability

Source: patent publication US20240383906A1, “5-SUBSTITUTED PYRIDINE-2(1H)-KETONE COMPOUND AND USE THEREOF” (JIANGSU KANION PHARMACEUTICAL CO., LTD., priority 2021, published 2024)
